According to paper PMC11054132, “Neuroprotective Effects of Chemical Constituents of Leaves of Euonymus hamiltonianus Wall” (Plants, 2024):
“Also recorded” adds a separate entry of the source.

How the values were obtained:
[1] = test system: NO production in LPS-activated BV-2 microglial cells; assay: NO production (Griess reaction) in LPS-stimulated BV-2 microglial cells; format: cell-based, mouse; settings: for IC50: pretreated 1 h, 100 ng/mL LPS (footnote 24 h; text 12 h), means ± SDs (n = 3); for Inhibitory effect on NO production (in words): LPS-stimulated BV-2 microglial cells
Protocol: The anti-inflammatory effects of the fourteen compounds (1–14) isolated from E. hamiltonianus were evaluated in activated BV-2 microglial cells by the production of NO and proinflammatory cytokines. […] […] The compounds were continuously assessed to determine whether they suppressed the expression of iNOS and COX-2 in LPS-stimulated BV-2 microglial cells. The cells were stimulated with LPS in the presence of these compounds at various concentrations, and the expression levels of iNOS and COX-2 were determined by Western blotting. […] Thus, compound 3 may be considered a potential anti-inflammatory agent.
For the Aβ-Hela-APPsw model, Hela cells were stably transfected with an APP carrying the Swedish mutation (APPsw) using BioT (Bioland Scientific LLC, Paramount, CA, USA) according to the manufacturer’s instructions, which was provided by Prof. Tae-Wan Kim (Department of Pathology, Columbia University of Medical Center, New York, NY 10032, USA). APPsw-transfected HeLa cells were grown in DMEM supplemented with 10% fetal bovine serum (FBS; Thermo Fisher Scientific, Lafayette, CA, USA), 1% penicillin/streptomycin (Thermo Fisher Scientific, Lafayette, CA, USA), 260 μg/mL Zeocin, and 400 μg/mL G418. The cells were maintained at 37 °C under a humidified atmosphere of 5% CO2. The stock sample solution was dissolved in DMSO and kept at −20 °C and diluted to the final concentration in fresh medium before each experiment. […] The EZ-Cytox kit (DAEILLAB, Cheongwon, Republic of Korea) was applied to detect the cell viability, following the manufacturer’s instructions, and measurements were taken by a microplate reader (BIO-TEK® Dower-Wave; BioTek, Winooski, VT, USA) under absorbance at 450 nm. The results were presented as the percentage of MTT reduction, compared with the control group as 100%. For the LPS-induced microglia model, the BV-2 mouse microglia cell line was provided by Prof. Lee Sung Jung’s research team in the College of Medicine, Seoul National University, and was cultured in DMEM-F12 with 5% FBS and 1% penicillin/streptomycin at 37 °C under a humidified atmosphere containing 5% CO2. And the cell viability assay was performed using the Aβ-Hela-APPsw model.
[…] The media were collected and centrifuged at 13,000 rpm for the removal of dead cells. The supernatants were collected and mixed with an equal volume (50 μL) of Griess reagents (1% sulfanilamide and N-(1-naphthyl) ethylenediamine dihydrochloride in 2.5% H3PO4) for 5 min at room temperature, and the Nitric Oxide concentration was measured at 540 nm using a microplate reader and compared with the sodium nitrite standard curve.

[2] = Cytotoxicity (MTT assay) in BV-2 microglial cells; format: cell-based; settings: mouse; BV-2 microglial cells, MTT assay; read-out: IC50 Value (µM) Cytotoxicity
iNOS = assay: Western blot of LPS-induced iNOS expression in BV-2 microglial cells; format: cell-based, mouse; settings: LPS-stimulated BV-2 microglial cells, various concentrations (1.0, 2.0, 4.0 µM)
Protocol: (§1) The anti-inflammatory effects of the fourteen compounds (1–14) isolated from E. hamiltonianus were evaluated in activated BV-2 microglial cells by the production of NO and proinflammatory cytokines. BV-2 microglial cells were stimulated with 0.1 µg/mL LPS for 12 h in the presence of the compounds at various concentrations, and the levels of NO in the culture supernatants were measured using Griess reactions. […] The compounds were continuously assessed to determine whether they suppressed the expression of iNOS and COX-2 in LPS-stimulated BV-2 microglial cells. The cells were stimulated with LPS in the presence of these compounds at various concentrations, and the expression levels of iNOS and COX-2 were determined by Western blotting. […] Thus, compound 3 may be considered a potential anti-inflammatory agent.
The total protein samples (10 μg) were loaded in sodium dodecyl sulfate polyacrylamide gel electrophoresis (SDS–PAGE) gels with 10% acrylamide/bis and transferred to polyvinylidene difluoride membranes (Millipore, Burlington, MA, USA). Then, the membranes were blocked with 5% silky milk dissolved in TBST (Tris Buffered saline Tween) for 1 h under room temperature and incubated overnight at 4 °C with specific primary antibodies (1:1000). After being washed with TBST, the membranes were incubated with secondary HRP-conjugated IgG (1:2000) at room temperature for 1 h and visualized using enhanced chemiluminescence (ECL) reagents (Thermo Fisher Scientific, Lafayette, CA, USA). Densitometry analysis of the bands was performed with the fusion solo system (Vilber, Paris, France). The band densities were determined as the intensities of protein by TotalLab TL120 software v2009 (TotalLab, Newcastle, UK).

COX-2 = assay: Western blot of LPS-induced COX-2 expression in BV-2 microglial cells; format: cell-based, mouse; settings: LPS-stimulated BV-2 microglial cells, various concentrations (1.0, 2.0, 4.0 µM)
Protocol: as §1
The total protein samples (10 μg) were loaded in sodium dodecyl sulfate polyacrylamide gel electrophoresis (SDS–PAGE) gels with 10% acrylamide/bis and transferred to polyvinylidene difluoride membranes (Millipore, Burlington, MA, USA). Then, the membranes were blocked with 5% silky milk dissolved in TBST (Tris Buffered saline Tween) for 1 h under room temperature and incubated overnight at 4 °C with specific primary antibodies (1:1000). […] The band densities were determined as the intensities of protein by TotalLab TL120 software v2009 (TotalLab, Newcastle, UK).

[3] = Mus musculus, BV-2, BV-2 microglial cells

Row | SMILES | IC50 ([1]; BV-2 microglial cells) | Inhibitory effect on NO production (in words) [1] | IC50 [1, 3] | IC50 at 12 h [2] | LPS-induced iNOS protein expression (in words) (iNOS) | LPS-induced COX-2 protein expression (in words) (COX-2)
1 | O=c1c(O[C@@H]2O[C@H](CO)[C@H](O)[C@H](O)[C@H]2O)c(-c2ccc(O)c(O)c2)oc2cc(O)cc(O)c12 [Compound 3, quercetin-3-O-β-D-galactopyranoside] | 16.3 ± 2.94 µM | effectively downregulated; also recorded: good inhibitory effects | 14.4 µM | > 100 µM | suppressed; also recorded: most potent inhibitory activity; also recorded: effectively downregulated | suppressed; also recorded: most potent inhibitory activity
2 | O=c1c(O[C@@H]2O[C@H](CO)[C@@H](O)[C@H](O)[C@H]2O)c(-c2ccc(O)c(O)c2)oc2cc(O[C@@H]3O[C@H](CO)[C@@H](O)[C@H](O)[C@H]3O)cc(O)c12 [Compound 4, quercetin-3,7-di-O-β-D-glucopyranoside] |  | effectively downregulated; also recorded: good inhibitory effects | 14.4 ± 8.68 µM | > 100 µM | suppressed; also recorded: effectively downregulated | suppressed
